Reference: US7776847B2, “Benzisothiazoles useful for treating or preventing HCV infection” (priority 2005, dated 2010)

Tested on: HCV replicon
Assay: HCV replicon luciferase reporter assay
Type: cell-based
Settings: Hepatitis C virus, Table 5; read-out: IC50
Outline: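 IC50 is the compound amount halving luciferase signal, measured after 24–48 h treatment at various concentrations. Cells carrying the HCV replicon were pre-incubated 24 h at 37° C, 5% CO2 after seeding at about 5,000–7,500 cells/well before dosing.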

| Structure (SMILES) | IC50 [µM] |
| --- | --- |
| COc1cccc(-c2cccc(C(=O)NCCCNc3nsc4ccccc34)c2)c1OC [Compound 369, N-(3-(benzo[d]isothiazol-3-ylamino)propyl)-5′,6′-dimethoxybiphenyl-3-carboxamide] | < 5 |
| COc1ccc(-c2cccc(C(=O)NCCNc3nsc4ccccc34)c2)cc1OC [Compound 370, N-(2-(benzo[d]isothiazol-3-ylamino)ethyl)-3′,4′-dimethoxybiphenyl-3-carboxamide] | < 5 |
| COc1ccc(-c2cccc(C(=O)NCCNc3nsc4ccccc34)c2)cc1 [Compound 371, N-(2-(benzo[d]isothiazol-3-ylamino)ethyl)-4′-methoxybiphenyl-3-carboxamide] | < 5 |
| Cc1ccc(-c2cccc(C(=O)NCCNc3nsc4ccccc34)c2)cc1C [Compound 372, N-(2-(benzo[d]isothiazol-3-ylamino)ethyl)-3′,4′-dimethylbiphenyl-3-carboxamide] | < 5 |
| O=C(NCCNc1nsc2ccccc12)c1cccc(-c2ccc3ccccc3c2)c1 [Compound 373, N-(2-(benzo[d]isothiazol-3-ylamino)ethyl)-3-(naphthalen-2-yl)benzamide] | < 5 |
| O=C(NCCNc1nsc2ccccc12)c1cccc(-c2cccc3cccnc23)c1 [Compound 374, N-(2-(benzo[d]isothiazol-3-ylamino)ethyl)-3-(quinolin-8-yl)benzamide] | < 5 |
| O=C(NCCNc1nsc2ccccc12)c1cccc(-c2cnc3ccccc3c2)c1 [Compound 375, N-(2-(benzo[d]isothiazol-3-ylamino)ethyl)-3-(quinolin-3-yl)benzamide] | < 5 |
| CC(C)Oc1ccccc1-c1cccc(C(=O)NCCCNc2nsc3ccccc23)c1 [Compound 376, N-(3-(benzo[d]isothiazol-3-ylamino)propyl)-6′-isopropoxybiphenyl-3-carboxamide] | < 5 |
| CC(C)Oc1ccccc1-c1ccc(C(=O)NCCNc2nsc3ccccc23)cc1 [Compound 377, N-(2-(benzo[d]isothiazol-3-ylamino)ethyl)-2′-isopropoxybiphenyl-4-carboxamide] | < 5 |
| COc1ccc(-c2cccc(C(=O)NCCCNc3nsc4ccccc34)c2)cc1 [Compound 378, N-(3-(benzo[d]isothiazol-3-ylamino)propyl)-4′-methoxybiphenyl-3-carboxamide] | < 5 |
| CCCCc1ccc(NC(=O)NCCCNc2nsc3ccccc23)cc1 [Compound 379, 1-(3-(benzo[d]isothiazol-3-ylamino)propyl)-3-(4-butylphenyl)urea] | < 5 |
| O=C(NCCCNc1nsc2ccccc12)c1cccc(-c2ccc(Cl)nc2)c1 [Compound 380, N-(3-(benzo[d]isothiazol-3-ylamino)propyl)-3-(6-chloropyridin-3-yl)benzamide] | < 5 |
| CCOc1ccc(C)c(-c2cccc(C(=O)NCCCNc3nsc4ccccc34)c2)c1 [Compound 381, N-(3-(benzo[d]isothiazol-3-ylamino)propyl)-3′-ethoxy-6′-methylbiphenyl-3-carboxamide] | < 5 |
| COc1ccc(OC)c(-c2cccc(C(=O)NCCCNc3nsc4ccccc34)c2)c1 [Compound 382, N-(3-(benzo[d]isothiazol-3-ylamino)propyl)-3′,6′-dimethoxybiphenyl-3-carboxamide] | < 5 |
| CCCOc1cc(F)ccc1-c1cccc(C(=O)NCCCNc2nsc3ccccc23)c1 [Compound 383, N-(3-(benzo[d]isothiazol-3-ylamino)propyl)-4′-fluoro-6′-propoxybiphenyl-3-carboxaimde] | < 5 |
| COc1ccccc1-c1cccc(C(=O)NCCCNc2nsc3ccccc23)c1 [Compound 384, N-(3-(benzo[d]isothiazol-3-ylamino)propyl)-6′-methoxybiphenyl-3-carboxamide] | < 5 |
| O=C(NCCNc1nsc2ccccc12)c1ccc(-c2ccccc2O)cc1 [Compound 385, N-(2-(benzo[d]isothiazol-3-ylamino)ethyl)-2′-hydroxybiphenyl-4-carboxamide] | < 5 |
